From patent publication US20260274865A1, “Fused Ring Compound and Preparation Method Therefor and Use Thereof” (SICHUAN KELUN-BIOTECH BIOPHARMACEUTICAL CO., LTD., priority 2023, published 2026)
Like-named read-outs stand apart in the source and are kept apart here.

Assays:
Type in all cases: cell-based
[1] = test system: NCI-N87 human gastric cancer cells; experiment: Inhibitory effects of compounds on NCI-N87 cell proliferation (Cell Counting-Lite 2.0, 72 h); conditions: NCI-N87, 72 h
Description: (1) Cell plating: First, tumor cells NCI-N87 were cultured in the corresponding culture medium, the cells were digested with trypsin, and the cells were resuspended after centrifugation and counted. The cells were adjusted to an appropriate concentration for plating.
(§1) Co-incubation of the compound of the present invention and tumor cells: After the cells adhered, the culture medium was removed from the cell culture plates, and the diluted biologically active molecule (the compound of the present invention) was added to the wells of the above plate, and incubated for 72 hours.
(§2) Detection of in vitro cell activity: After the incubation was completed, 50 μL of Cell Counting-Lite™ 2.0 reagent (Vazyme) was added to each well, shaken and mixed well in the dark to perform the reaction for 10 minutes, then the detection was carried out, and a microplate reader (manufacturer: BMG, model: PHERAStar-FS) was used for reading. The background RLU was obtained using Cell Counting-Lite™ reagent in cell-free culture medium, and the solvent RLU was obtained using Cell Counting-Lite™ reagent in cell-containing culture medium. […] RLU: relative light unit.

[2] = test system: HCC1954 cells; experiment: Inhibitory effect of compounds on proliferation of HCC1954 cells (Cell Counting-Lite 2.0, 72 h); conditions: Homo sapiens
Description: (1) Cell plating: First, tumor cells HCC1954 were cultured in the corresponding culture medium, the cells were digested with trypsin, and the cells were resuspended after centrifugation and counted. The cells were adjusted to an appropriate concentration for plating.
as §1, §2

[3] = test system: HT29 colon cancer cells; experiment: Inhibitory effect of compounds on HT29 cell proliferation (Cell Counting-Lite 2.0, 72 h); conditions: Homo sapiens
Description: (1) Cell plating: First, tumor cells HT29 were cultured in the corresponding culture medium, the cells were digested with trypsin, and the cells were resuspended after centrifugation and counted. The cells were adjusted to an appropriate concentration for plating.
as §1, §2

[4] = test system: NCI-H1975 human non-small cell lung cancer cells; experiment: Inhibitory effect of compounds on proliferation of NCI-H1975 cells (Cell Counting-Lite 2.0, 72 h); conditions: Table 10, incubated for 72 hours
Description: (1) Cell plating: First, tumor cells NCI-H1975 were cultured in the corresponding culture medium, the cells were digested with trypsin, and the cells were resuspended after centrifugation and counted. The cells were adjusted to an appropriate concentration for plating.
as §1, §2

[5] = test system: HCC827 human non-small cell lung cancer cells; experiment: Inhibitory effect of compounds on HCC827 cell proliferation (Cell Counting-Lite 2.0, 72 h); conditions: Table 6, incubated for 72 hours, read-out: Inhibition activity of compounds on proliferation of HCC827 cells IC50
Description: (1) Cell plating: First, tumor cells HCC827 were cultured in the corresponding culture medium, the cells were digested with trypsin, and the cells were resuspended after centrifugation and counted. The cells were adjusted to an appropriate concentration for plating.
as §1, §2

[6] = Table 2-2, incubated for 72 hours
[7] = Table 8-2, incubated for 72 hours, read-out: Inhibitory activity of compounds on proliferation of HCC1954 cells IC50
[8] = HT-29, Table 4-1, incubated for 72 hours
[9] = Table 2-1, incubated for 72 hours
[10] = Table 8-1, incubated for 72 hours, read-out: Inhibition activity of compounds on proliferation of HCC1954 cells IC50
[11] = HT-29, Table 4-2, incubated for 72 hours

Row | Structure (SMILES) | IC50 [1, 6] | IC50 [2, 7] | IC50 [3, 8] | IC50 [4] | IC50 [1, 9] | IC50 [2, 10] | IC50 [5] | IC50 [3, 11]
1 | COc1ccc(C2=CN3C(=O)c4cc(OC)c(OCCCCCOc5cc6c(cc5OC)C(=O)N5C[C@H](O)C[C@H]5CN6)cc4NC[C@@H]3C2)cc1 [Compound 7-40, (S)-8-((5-(((2R,11aS)-2-hydroxy-7-methoxy-5-oxo-2,3,5,10,11,11a-hexahydro-1H-benzo[e]pyrrolo[1,2-a][1,4]diazepin-8-yl)oxy)pentyl)oxy)-7-methoxy-2-(4-methoxyphenyl)-1,10,11,11a-tetrahydro-5H-benzo[e]pyrrolo[1,2-a][1,4]diazepin-5-one] | 93.6 nM | 128 nM |  |  |  |  |  | 
2 | C=C1C[C@H]2CNc3cc(OCCCCCOc4cc5c(cc4OC)C(=O)N4C=C(c6ccc(OC)cc6)C[C@H]4CN5)c(OC)cc3C(=O)N2C1 [Compound 7-41, (S)-7-methoxy-8-((5-(((S)-7-methoxy-2-methylene-5-oxo-2,3,5,10,11,11a-hexahydro-1H-benzo[e]pyrrolo[1,2-a][1,4]diazepin-8-yl)oxy)pentyl)oxy)-2-(4-methoxyphenyl)-1,10,11,11a-tetrahydro-5H-benzo[e]pyrrolo[1,2-a][1,4]diazepin-5-one] |  |  | 9.8 nM | 69.9 nM | 12.7 nM | 259 nM | 225 nM | 
3 | COc1cc2c(cc1OCCCCCOc1cc3c(cc1OC)C(=O)N1CC4(CC4)C[C@H]1CN3)NC[C@@H]1CC(c3ccoc3)=CN1C2=O [Compound 7-36, (S)-8-((5-(((S)-2-(furan-3-yl)-7-methoxy-5-oxo-5,10,11,11a-tetrahydro-1H-benzo[e]pyrrolo[1,2-a][1,4]diazepin-8-yl)oxy)pentyl)oxy)-7-methoxy-1,10,11,11a-tetrahydro-3H,5H-spiro[benzo[e]pyrrolo[1,2-a][1,4]diazepin-2,1′-cyclopropane]-5-one] |  |  | 14.7 nM | 114 nM | 15.4 nM | 144 nM | 126 nM | 
4 | COc1ccc(C2=CN3C(=O)c4cc(OC)c(OCCCCCOc5cc6c(cc5OC)C(=O)N5CC(F)(F)C[C@H]5CN6)cc4NC[C@@H]3C2)cc1 [Compound 7-39, (S)-8-((5-(((S)-2,2-difluoro-7-methoxy-5-oxo-2,3,5, 10,11,11a-hexahydro-1H-benzo[e]pyrrolo[1,2-a][1,4]diazepin-8-yl)oxy)pentyl)oxy)-7-methoxy-2-(4-methoxyphenyl)-1,10,11,11a-tetrahydro-5H-benzo[e]pyrrolo[1,2-a][1,4]diazepin-5-one] | 11 nM | 140 nM |  | 12.3 nM |  |  |  | 9.7 nM
5 | COc1cc2c(cc1OCCCCCOc1cc3c(cc1OC)C(=O)N1CC4(CC4)C[C@H]1CN3)NC[C@@H]1CC(c3ccsc3)=CN1C2=O [Compound 7-37, (S)-7-methoxy-8-((5-(((S)-7-methoxy-5-oxo-2-(thien-3-yl)-5,10,11,11a-tetrahydro-1H-benzo[e]pyrrolo[1,2-a][1,4]diazepin-8-yl)oxy)pentyl)oxy)-1,10,11,11a-tetrahydro-3H,5H-spiro[benzo[e]pyrrolo[1,2-a][1,4]diazepin-2,1′-cyclopropane]-5-one] |  |  | 16.2 nM | 101 nM | 24.2 nM | 148 nM | 124 nM | 
6 | COc1cc2c(cc1OCCCCCOc1cc3c(cc1OC)C(=O)N1CC4(CC4)C[C@H]1CN3)NC[C@@H]1C[C@H](c3ccc(N)cc3)CN1C2=O [Compound 7-35] | 118 nM |  |  |  |  |  |  | 
7 | COc1ccc(C2=CN3C(=O)c4cc(OC)c(OCCCCCOc5cc6c(cc5OC)C(=O)N5[C@H](CN6)C[C@H]6C[C@H]65)cc4NC(=O)[C@@H]3C2)cc1 [Compound 7-42] | 100 nM |  |  |  |  |  |  | 99.7 nM
8 | COc1cc2c(cc1OCCCCCOc1cc3c(cc1OC)C(=O)N1CC4(CC4)C[C@H]1CN3)NC[C@@H]1CC(c3ccc(N)cc3)=CN1C2=O [Compound 7-5, (S)-8-((5-(((S)-2-(4-Aminophenyl)-7-methoxy-5-oxo-5,10,11,11a-tetrahydro-1H-benzo[e]pyrrolo[1,2-a][1,4]diazepin-8-yl)oxy)pentyl)oxy)-7-methoxy-1,10,11,11-tetrahydro-3H,5H-spiro[benzo[e]pyrrolo[1,2-a][1,4]diazepin-2,1′-cyclopropane]-5-one] | 4.1 nM |  | 1.4 nM | 12.3 nM | 3.2 nM | 25.9 nM | 13.1 nM | 
9 | COc1ccc(C2=CN3C(=O)c4cc(OC)c(OCCCCCOc5cc6c(cc5OC)C(=O)N5[C@H](CN6)C[C@H]6C[C@H]65)cc4NC[C@@H]3C2)cc1 [Compound 7-43, (1aR,9aS,10aR)-5-methoxy-6-((5-(((S)-7-methoxy-2-(4-methoxyphenyl)-5-oxo-5,10,11,11a-tetrahydro-1H-benzo[e]pyrrolo[1,2-a][1,4]diazepin-8-yl)oxy)pentyl)oxy)-1a,8,9,9a,10,10a-hexahydrobenzo[e]cyclopropo[4,5]pyrrolo[1,2-a][1,4]diazepin-3(1H)-one] | 10.1 nM |  |  |  |  |  |  | 10.2 nM
10 | COc1cc2c(cc1OCCCCCOc1cc3c(cc1OC)C(=O)N1CC(F)(F)C[C@H]1CN3)NC[C@@H]1CC(c3ccc(N)cc3)=CN1C2=O [Compound 7-29, (S)-2-(4-aminophenyl)-8-((5-(((S)-2,2-difluoro-7-methoxy-5-oxo-2,3,5,10,11,11a-hexahydro-1H-benzo[e]pyrrolo[1,2-a][1,4]diazepin-8-yl)oxy)pentyl)oxy)-7-methoxy-1,10,11,11a-tetrahydro-5H-benzo[e]pyrrolo[1,2-a][1,4]diazepin-5-one] | 117 nM | 154 nM |  |  |  |  |  | 
11 | COc1cc2c(cc1OCCCCCOc1cc3c(cc1OC)C(=O)N1CC4(CC4)C[C@H]1CN3)NC[C@@H]1CC(c3csc(CO)c3)=CN1C2=O [Compound 7-38, (S)-8-((5-(((S)-2-(5-(hydroxymethyl)thien-3-yl)-7-methoxy-5-oxo-5,10,11,11a-tetrahydro-1H-benzo[e]pyrrolo[1,2-a][1,4]diazepin-8-yl)oxy)pentyl)oxy)-7-methoxy-1,10,11,11a-tetrahydro-3H,5H-spiro[benzo[e]pyrrolo[1,2-a][1,4]diazepin-2,1′-cyclopropane]-5-one] |  |  | 15.4 nM | 105 nM | 49.7 nM | 695 nM | 139 nM | 
12 | COc1cc2c(cc1OCCCCCOc1cc3c(cc1OC)C(=O)N1CC4(CC4)C[C@H]1CN3)NC[C@@H]1C[C@@H](c3ccc(N)cc3)CN1C2=O [Compound 7-34, (S)-8-((5-(((2S,11aS)-2-(4-aminophenyl)-7-methoxy-5-oxo-2,3,5,10,11,11a-hexahydro-1H-benzo[e]pyrrolo[1,2-a][1,4]diazepin-8-yl)oxy)pentyl)oxy)-7-methoxy-1,10,11,11a-tetrahydro-3H,5H-spiro[benzo[e]pyrrolo[1,2-a][1,4]diazepin-2,1′-cyclopropane]-5-one] | 120 nM |  |  |  |  |  |  | 
13 | COc1cc2c(cc1OCCCCCOc1cc3c(cc1OC)C(=O)N1CC4(CC4)C[C@H]1CN3)NC[C@@H]1CC3(CC3)CN1C2=O [Compound 7-9] |  |  | 14.9 nM | 107 nM | 29.7 nM | 125 nM | 116 nM | 
14 | COc1cc2c(cc1OCCCCCOc1cc3c(cc1OC)C(=O)N1CC4(CC4)C[C@H]1CN3)NC[C@@H]1CC(c3ccc(O)cc3)=CN1C2=O [Compound 7-3, (S)-8-((5-(((S)-2-(4-Hydroxyphenyl)-7-methoxy-5-oxo-5,10,11,11a-tetrahydro-1H-benzo[e]pyrrolo[1,2-a][1,4]diazepin-8-yl)oxy)pentyl)oxy)-7-methoxy-1,10,11,11a-tetrahydro-3H,5H-spiro[benzo[e]pyrrolo[1,2-a][1,4]diazepin-2,1′-cyclopropane]-5-one] | 79.3 nM | 208 nM |  | 124 nM |  |  |  | 10.2 nM
